According to the NIST ThermoML archive (doi:10.1021/acs.jced.7b00023):
± gives the expanded uncertainty stated by the source.

How the values were obtained:
[1] = refractive index (Na D-line) (dimensionless); wn = mass fraction of the nth substance listed; settings: 101.3 kPa, Liquid, Standard Abbe refractometry
[2] = wn = mass fraction of the nth substance listed; settings: 101.3 kPa, Liquid, Vibrating tube method

refractive index ([1]; 298.15 K, w1 = 0.6538) | refractive index ([1]; 308.15 K, w1 = 0.6693) | refractive index ([1]; 318.15 K, w1 = 0.6788) | mass density ([2]; 298.15 K, w1 = 0.6538) [kg/m3] | mass density ([2]; 308.15 K, w1 = 0.6693) [kg/m3] | mass density ([2]; 318.15 K, w1 = 0.6788) [kg/m3] | refractive index ([1]; 298.15 K, w1 = 0.263) | refractive index ([1]; 308.15 K, w1 = 0.2666) | refractive index ([1]; 318.15 K, w1 = 0.2669) | mass density ([2]; 298.15 K, w1 = 0.263) [kg/m3] | mass density ([2]; 308.15 K, w1 = 0.2666) [kg/m3] | mass density ([2]; 318.15 K, w1 = 0.2669) [kg/m3] | SMILES
1.4196 ± 0.002 | 1.4204 ± 0.002 | 1.4218 ± 0.002 | 1923.9 ± 3.6 | 1946.1 ± 3.6 | 1980.8 ± 3.7 |  |  |  |  |  |  | [Cl-].[Cs+] [cesium chloride] + O
 |  |  |  |  |  | 1.3796 ± 0.002 | 1.3781 ± 0.002 | 1.3766 ± 0.002 | 1197.8 ± 3.1 | 1193.6 ± 3.1 | 1188.9 ± 3.1 | [Cl-].[Na+] [sodium chloride] + O
